This note sets out measurements from paper PMC7916057.

Bounds are passed on as bounds.

The test system of data set [1] is AS1411 (FRET-labeled) (DNA, G4) GGTGGTGGTGGTTGTGGTGGTGGTGG
The data set is described as follows: FRET melting. The conditions noted are these: K+ 140 mM; 10 mM lithium cacodylate pH 7.2; ligand 4 eq., DNA 0.2 µM.

The subject of data set [2] is AS1411 (biotin-labeled) (DNA, G4) GGTGGTGGTGGTTGTGGTGGTGGTGG
The data set is described as follows: SPR. The settings on record: K+ 140 mM; 10 mM phosphate, 25 °C; 1:1 affinity model.

Data set [3] deals with AS1411-N6 (biotin-labeled) (DNA, G4) GGTTGGGGTGGTGGTGGTTGTGGTGGTGGTGGCCAACC
The data set is described as follows: SPR. The settings on record: K+ 140 mM; 10 mM phosphate, 25 °C; 1:1 affinity model.

The test system of data set [4] is AS1411-N6 (FRET-labeled) (DNA, G4) GGTTGGGGTGGTGGTGGTTGTGGTGGTGGTGGCCAACC
The data set is described as follows: FRET melting. The settings on record: K+ 140 mM; 10 mM lithium cacodylate pH 7.2; ligand 4 eq., DNA 0.2 µM.

The subject of data set [5] is AS1411-N6 (DNA, G4) GGTTGGGGTGGTGGTGGTTGTGGTGGTGGTGGCCAACC
The data set is described as follows: CD spectra. The settings on record: K+ 140 mM, 10 mM lithium cacodylate.

Data set [6] has as its system AS1411 (DNA, G4) GGTGGTGGTGGTTGTGGTGGTGGTGG
The data set is described as follows: CD melting (260 nm). The conditions noted are these: K+ 140 mM; 10 mM lithium cacodylate pH 7.2; ligand equivalents not given.

Data set [7] shares this test system. The data set is described as follows: CD spectra. The conditions noted are these: K+ 140 mM; 10 mM lithium cacodylate; ellipticity increase.
The test system of data set [8] is AS1411-N6 (DNA, G4) GGTTGGGGTGGTGGTGGTTGTGGTGGTGGTGGCCAACC
The data set is described as follows: CD melting (260 nm). The settings on record: K+ 140 mM; 10 mM lithium cacodylate pH 7.2; ligand 4 eq., DNA 10 µM.

Data set [9] shares this test system. The data set is described as follows: 1H NMR titration (imino region). The settings on record: 10 mM potassium phosphate pH 6.9, 10% D2O, 25 °C; duplex signals lost at 3 eq.
For data set [10], the target named is T1, nucleolin RBD1,2 (NCL RBD 1,2) (UniProt P19338 307-466). The data set is described as follows: fluorescence titration; no ligand; PAGE: 10 mM phosphate, 140 mM KCl, 20 uM DNA, 1:1(:1) ratio, 30 min; fluorescence titration buffer, pH and temperature not given in the material. The conditions noted are these: protein: recombinant; unlabelled in PAGE; stem-loop duplex plus G4; monomer major, dimer band also seen.
T1 sequence (P19338 307-466): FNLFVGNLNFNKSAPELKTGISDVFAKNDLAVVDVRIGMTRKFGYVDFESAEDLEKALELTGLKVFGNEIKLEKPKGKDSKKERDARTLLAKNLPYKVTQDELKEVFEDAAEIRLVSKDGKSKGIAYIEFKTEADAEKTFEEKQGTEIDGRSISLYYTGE

In data set [11] the target is T1, nucleolin RBD1,2 (NCL RBD 1,2). The data set is described as follows: fluorescence titration; 360A; PAGE: 10 mM phosphate, 140 mM KCl, 20 uM DNA, 1:1(:1) ratio, 30 min; fluorescence titration buffer, pH and temperature not given in the material. The conditions noted are these: protein: recombinant; unlabelled in PAGE; stem-loop duplex plus G4; monomer major, dimer band also seen.

Data set [12] shares this target. The data set is described as follows: fluorescence titration; TMPyP4; PAGE: 10 mM phosphate, 140 mM KCl, 20 uM DNA, 1:1(:1) ratio, 30 min; fluorescence titration buffer, pH and temperature not given in the material. The conditions noted are these: protein: recombinant; unlabelled in PAGE; stem-loop duplex plus G4; monomer major, dimer band also seen.
For data set [13] the target is unchanged. The data set is described as follows: fluorescence titration; PhenDC3; PAGE: 10 mM phosphate, 140 mM KCl, 20 uM DNA, 1:1(:1) ratio, 30 min; fluorescence titration buffer, pH and temperature not given in the material. The settings on record: protein: recombinant; unlabelled in PAGE; stem-loop duplex plus G4; monomer major, dimer band also seen.

On to `C[n+]1ccc(-c2c3nc(c(-c4cc[n+](C)cc4)c4ccc([nH]4)c(-c4cc[n+](C)cc4)c4nc(c(-c5cc[n+](C)cc5)c5ccc2[nH]5)C=C4)C=C3)cc1`, for which the ΔTm (in general, the change in melting temperature against a reference sample) was 21.75 ± 1.08 °C in [1], 28.94 ± 0.23 °C in data set [4] and ~ 25 °C in data set [6]. Moreover, the KD (in general, the constant that tells how readily two partners part at equilibrium) in data set [2] stood at 115 ± 7.09 nM; in data set [3], 264 ± 30 nM. For the same molecule, in data set [5] (ellipticity increase), the binding result is reported as “yes”.

On to `CN(C)c1ccc(Nc2c3ccc(NC(=O)CCN4CCCC4)cc3nc3cc(NC(=O)CCN4CCCC4)ccc23)cc1`, for which the figures for the ΔTm in data set [1] and in [4] were 8.99 ± 0.79 °C and 3.73 ± 0.09 °C, respectively.

As to `NCCOc1cc(C(=O)Nc2cc(OCCN)c3ccccc3n2)nc(C(=O)Nc2cc(OCCN)c3ccccc3n2)c1`, the ΔTm in data set [1] was -0.75 ± 1.02 °C; in data set [4] it was 2.35 ± 0.44 °C.

Regarding `C[n+]1cc(NC(=O)c2ccc3ccc4ccc(C(=O)Nc5cc6ccccc6[n+](C)c5)nc4c3n2)cc2ccccc21`, the ΔTm in data set [1] is 24.77 ± 2.56 °C; in data set [4] it was 22.89 ± 1.49 °C. For the same molecule, the KD in data set [2] was 344 ± 53.8 nM; in data set [3] it was 227 ± 54 nM. The binding result in data set [7] and in data set [5] (280 nm band lost at 3–4 eq.) was “yes” in each case.

As for `C[n+]1cc(NC(=O)c2cccc(C(=O)Nc3cc4ccccc4[n+](C)c3)n2)cc2ccccc21`, the ΔTm in data set [1] was 19.28 ± 0.99 °C; in data set [8], greater than 30 °C; in data set [4], 20.16 ± 0.41 °C. In addition, the KD in data set [2] is 43.4 ± 8.47 nM; in [3] it was 38.2 ± 5.4 nM. Also, the binding result in data set [7] and in data set [9] was “yes” in each case.

B1: AS1411-N6 (structured_DNA)
DNA: GGTTGGGGTGGTGGTGGTTGTGGTGGTGGTGGCCAACC
As for B1, the Kd (commonly the constant that tells how readily two partners part at equilibrium) in data set [10] stood at 1000 ± 100 nM; in data set [11] it was 700 ± 100 nM; in data set [12], 1100 ± 200 nM; in data set [13], 1500 ± 300 nM.
